Measured values published in ChEMBL document CHEMBL5518249, “Structure-Guided Discovery and Preclinical Assessment of Novel (Thiophen-3-yl)aminopyrimidine Derivatives as Potent ERK1/2 Inhibitors” (J Med Chem, 2024).

Legend:
MDA-MB-231 [1] = assay: cells; conditions: Homo sapiens, MDA-MB-231, 24 h
Description: Antiproliferative activity against human MDA-MB-231 cells assessed as cell viability incubated for 24 hrs by methyl thiazolyl tetrazolium (MTT) assay

RKO [2] = assay: cells; conditions: Homo sapiens, 24 h
Description: Antiproliferative activity against human RKO cells assessed as cell viability incubated for 24 hrs by methyl thiazolyl tetrazolium (MTT) assay

MDA-MB-231 [3] = assay: animal or person; assay type: functional, Homo sapiens; conditions: Mus musculus, MDA-MB-231, po, 360 h, route ig, time 15 day, read-out: TGI
Description: In vivo antitumor activity against human MDA-MB-231 cells xenografted in BALB/c mouse model assessed as tumor growth inhibition at 50 mg/kg, IG once daily for 15 days relative to control

RKO [4] = assay: animal or person; assay type: functional, Homo sapiens; conditions: Mus musculus, po, 360 h, route ig, time 15 day, read-out: TGI
Description: In vivo antitumor activity against human RKO cells xenografted in BALB/c mouse model assessed as tumor growth inhibition at 50 mg/kg, IG once daily for 15 days relative to control

[5] = biological target: Mitogen-activated protein kinase 3 (Homo sapiens, UniProt P27361)
Sequence of Mitogen-activated protein kinase 3 (P27361 whole entry): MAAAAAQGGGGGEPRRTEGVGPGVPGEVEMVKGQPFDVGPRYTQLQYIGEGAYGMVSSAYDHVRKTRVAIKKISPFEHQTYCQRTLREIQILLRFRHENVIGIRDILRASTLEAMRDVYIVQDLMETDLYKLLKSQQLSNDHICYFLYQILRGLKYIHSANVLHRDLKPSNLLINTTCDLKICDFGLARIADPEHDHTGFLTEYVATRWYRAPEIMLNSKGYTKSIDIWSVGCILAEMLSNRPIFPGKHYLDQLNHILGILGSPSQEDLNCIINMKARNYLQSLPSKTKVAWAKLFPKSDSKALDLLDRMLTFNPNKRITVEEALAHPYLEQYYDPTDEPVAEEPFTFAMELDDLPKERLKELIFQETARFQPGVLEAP
Description: Inhibition of ERK1 (unknown origin) assessed as luminescence in presence of ATP incubated for 90 mins by ADP-Glo kinase assay

| IC50 (MDA-MB-231 [1]) [µM] | IC50 (RKO [2]) [µM] | IC50 [5] [µM] | SMILES | inhibition in vivo at 50 mg/kg (MDA-MB-231 [3]) [%] | inhibition in vivo at 50 mg/kg (RKO [4]) [%] |
| --- | --- | --- | --- | --- | --- |
| > 50 | > 50 |  | Cn1nccc1Nc1ncc(Cl)c(-c2csc(C(=O)NCc3ccccc3F)c2)n1 |  |  |
| > 50 | 49.4 |  | Cn1ccc(Nc2ncc(Cl)c(-c3csc(C(=O)NCc4ccc(F)c(Cl)c4)c3)n2)n1 |  |  |
| 36.6 | 20.2 |  | Cn1cc(Nc2ncc(Cl)c(-c3csc(C(=O)NCc4ccc(F)c(Cl)c4)c3)n2)cn1 |  |  |
| 6.26 | 5.41 |  | Cc1cnccc1Nc1ncc(Cl)c(-c2csc(C(=O)NCc3ccc(F)c(Cl)c3)c2)n1 |  |  |
| 39.4 | 50.6 |  | Cn1nccc1Nc1ncc(Cl)c(-c2csc(C(=O)NCCN3CCOCC3)c2)n1 |  |  |
| > 50 | > 50 |  | COc1ccccc1CNC(=O)c1cc(-c2nc(Nc3ccnn3C)ncc2Cl)cs1 |  |  |

Continued, compound first:

| SMILES | IC50 (MDA-MB-231 [1]) [µM] | IC50 (RKO [2]) [µM] | IC50 [5] [µM] | inhibition in vivo at 50 mg/kg (MDA-MB-231 [3]) [%] | inhibition in vivo at 50 mg/kg (RKO [4]) [%] |
| --- | --- | --- | --- | --- | --- |
| Cn1nccc1Nc1ncc(Cl)c(-c2csc(C(=O)NCc3ccc(C(F)(F)F)cc3)c2)n1 | 39.4 | 41.2 |  |  |  |
| Cn1nccc1Nc1ncc(Cl)c(-c2csc(C(=O)NCc3ccccc3Br)c2)n1 | > 50 | > 50 |  |  |  |
| Cn1nccc1Nc1ncc(Cl)c(-c2csc(C(=O)NCc3ccc(F)cc3)c2)n1 | 15.8 | 14.5 |  |  |  |
| Cn1nccc1Nc1ncc(Cl)c(-c2csc(C(=O)NCc3ccc(Cl)c(Cl)c3)c2)n1 | 12.4 | 10.2 |  |  |  |
| COc1cccc(CNC(=O)c2cc(-c3nc(Nc4ccnn4C)ncc3Cl)cs2)c1 | 29.4 | 33.4 |  |  |  |
| Cn1nccc1Nc1ncc(Cl)c(-c2csc(C(=O)NCc3cccc(Br)c3)c2)n1 | > 50 | > 50 |  |  |  |
| Cn1cc(Nc2ncc(Cl)c(-c3csc(C(=O)NCc4ccc(F)c(Cl)c4)c3)n2)c(C(F)(F)F)n1 | > 50 | > 50 |  |  |  |
| CC(C)Nc1cc(-c2c[nH]c(C(=O)N[C@H](CO)c3cccc(Cl)c3)c2)c(Cl)cn1 [ULIXERTINIB] |  |  |  | 39.3 | 47.4 |
| Cn1nccc1Nc1ncc(Cl)c(-c2csc(C(=O)NCc3cccc(C(F)(F)F)c3)c2)n1 | 21.1 | 24.5 |  |  |  |
| Cn1nccc1Nc1ncc(Cl)c(-c2csc(C(=O)NC3CCOCC3)c2)n1 |  |  | 0.0254 |  |  |
| Cn1nccc1Nc1ncc(Cl)c(-c2csc(C(=O)NCc3ccc(F)cc3F)c2)n1 | > 50 | > 50 |  |  |  |
| Cn1nccc1Nc1ncc(Cl)c(-c2csc(C(=O)NCc3ccc(Cl)c(F)c3)c2)n1 | 11.5 | 12.6 |  |  |  |
| Cn1nccc1Nc1ncc(Cl)c(-c2csc(C(=O)NCc3ccc(Cl)cc3F)c2)n1 | 48.2 | 39 |  |  |  |
